# Read-outs that look alike come from different tables or passages of the source.
# Molecular target: CFTR (Homo sapiens, UniProt P13569)
# Test: Membrane Potential Dye, Enteroid Assay A
# Assay type: cell-based
# Details: for EC50: read-out: Ent. A EC50
# Method in brief: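 Enteroid cells were loaded with methyl oxonol membrane potential dye (plus CaCCinh-A01 and Chicago Sky Blue) for 25 min at room temperature. Chloride transport was started by switching to chloride-free gluconate stimulation solution, with fluorescence read for 15 min. Activity was expressed as % of a triple-combination CFTR modulator control (3 μM, 3 μM, 300 nM acute).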
# Sequence of CFTR (P13569 with tags, fused parts or gaps DEL508-508): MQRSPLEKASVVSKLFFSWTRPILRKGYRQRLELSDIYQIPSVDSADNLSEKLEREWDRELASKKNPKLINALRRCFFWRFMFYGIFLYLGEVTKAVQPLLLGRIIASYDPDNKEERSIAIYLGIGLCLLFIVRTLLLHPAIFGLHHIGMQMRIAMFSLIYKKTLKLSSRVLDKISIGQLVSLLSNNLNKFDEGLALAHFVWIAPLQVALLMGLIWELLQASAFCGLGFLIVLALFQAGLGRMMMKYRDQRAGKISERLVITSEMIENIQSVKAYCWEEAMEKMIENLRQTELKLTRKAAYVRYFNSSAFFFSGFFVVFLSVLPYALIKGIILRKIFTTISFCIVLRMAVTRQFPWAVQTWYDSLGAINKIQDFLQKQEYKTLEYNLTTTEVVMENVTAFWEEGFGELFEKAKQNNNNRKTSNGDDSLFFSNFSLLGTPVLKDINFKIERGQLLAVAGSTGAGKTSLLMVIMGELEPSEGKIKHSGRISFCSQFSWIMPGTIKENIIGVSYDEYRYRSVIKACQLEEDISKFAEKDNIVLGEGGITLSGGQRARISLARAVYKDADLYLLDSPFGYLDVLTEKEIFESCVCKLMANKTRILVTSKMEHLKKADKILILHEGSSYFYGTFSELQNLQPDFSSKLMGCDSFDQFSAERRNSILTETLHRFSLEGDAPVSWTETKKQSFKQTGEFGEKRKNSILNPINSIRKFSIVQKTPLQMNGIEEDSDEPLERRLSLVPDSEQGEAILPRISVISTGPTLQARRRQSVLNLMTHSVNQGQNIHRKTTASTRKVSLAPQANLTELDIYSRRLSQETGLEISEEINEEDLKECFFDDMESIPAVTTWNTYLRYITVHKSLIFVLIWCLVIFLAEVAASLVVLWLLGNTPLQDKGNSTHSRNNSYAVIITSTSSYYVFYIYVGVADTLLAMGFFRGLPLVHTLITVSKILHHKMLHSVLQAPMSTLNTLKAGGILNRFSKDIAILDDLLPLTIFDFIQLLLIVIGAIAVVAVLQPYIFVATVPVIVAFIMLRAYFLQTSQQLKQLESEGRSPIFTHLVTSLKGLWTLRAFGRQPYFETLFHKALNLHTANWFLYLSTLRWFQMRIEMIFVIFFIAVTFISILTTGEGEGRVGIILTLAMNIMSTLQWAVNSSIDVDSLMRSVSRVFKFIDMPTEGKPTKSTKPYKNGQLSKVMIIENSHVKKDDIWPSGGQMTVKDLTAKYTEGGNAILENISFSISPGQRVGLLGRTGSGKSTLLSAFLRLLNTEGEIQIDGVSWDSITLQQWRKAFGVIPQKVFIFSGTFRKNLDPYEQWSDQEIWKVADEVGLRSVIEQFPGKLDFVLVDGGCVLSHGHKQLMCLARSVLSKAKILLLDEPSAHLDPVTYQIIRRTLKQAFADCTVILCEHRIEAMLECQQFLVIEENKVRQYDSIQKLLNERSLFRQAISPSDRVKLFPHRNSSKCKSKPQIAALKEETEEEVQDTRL
Ent. A Max Activity (Table 8),EC50 (Table 8),Ent. A Max Activity (Enteroid Assay A),EC50 (Enteroid Assay A),SMILES,further results
+++ (+++ is >60%),< 1000 nM,,,Cc1cccc(C)c1-c1cc2nc(n1)NS(=O)(=O)c1cccc(c1)C(=O)NCC(c1ccc(CC(C)(C)C)cc1)O2 (centres unmarked) [Compound 267],
+++ (+++ is >60%),< 1000 nM,,,Cc1cccc(C)c1-c1cc2nc(n1)NS(=O)(=O)c1cccc(c1)C(=O)NCC(c1ccc(C3CC3)cc1)O2 (centres unmarked) [Compound 268],
+++ (+++ is >60%),< 1000 nM,,,Cc1cccc(C)c1-c1cc2nc(n1)NS(=O)(=O)c1cccc(c1)C(=O)NC[C@@H](c1cccc(C(C)(C)C)c1)O2 [Compound 273],
,< 1000 nM,,,Cc1cccc(C)c1-c1cc2nc(n1)NS(=O)(=O)c1cccc(c1)C(=O)NCC(c1ccc(C(C)C)cc1)O2 (centres unmarked) [Compound 275],
,< 1000 nM,,,Cc1ccccc1[C@@H]1CNC(=O)c2cccc(c2)S(=O)(=O)Nc2nc(cc(-c3c(C)cccc3C)n2)O1 [Compound 276],
,< 1000 nM,,,Cc1cccc(C)c1-c1cc2nc(n1)NS(=O)(=O)c1cccc(c1)C(=O)NCC(c1ccccc1C(C)(C)C)O2 (centres unmarked) [Compound 278],
+++ (+++ is >60%),< 1000 nM,,,Cc1ccccc1C1CNC(=O)c2cccc(c2)S(=O)(=O)Nc2nc(cc(-c3c(C)cccc3C)n2)O1 (centres unmarked) [Compound 279],
+++ (+++ is >60%),< 1000 nM,,,COc1ccccc1C1CNC(=O)c2cccc(c2)S(=O)(=O)Nc2nc(cc(-c3c(C)cccc3C)n2)O1 (centres unmarked) [Compound 280],
+++ (+++ is >60%),< 1000 nM,,,Cc1cccc(C)c1-c1cc2nc(n1)NS(=O)(=O)c1cccc(c1)C(=O)NCC(C1CCCCC1)O2 (centres unmarked) [Compound 281],
+ (+ is <30%),,,,Cc1cccc(C)c1-c1cc2nc(n1)NS(=O)(=O)c1cccc(c1)C(=O)NCC(c1cnc(C(C)(C)C)nc1)O2 (centres unmarked) [Compound 285],
+++ (+++ is >60%),< 1000 nM,,,Cc1cccc(C)c1-c1cc2nc(n1)NS(=O)(=O)c1cccc(c1)C(=O)N[C@@H](CC1(C(F)(F)F)CC1)CO2 [Compound 288],
,1000 to 3000 nM,,,Cc1cccc(C)c1-c1cc2nc(n1)NS(=O)(=O)c1cccc(c1)C(=O)N[C@@H](c1ccccc1)CCO2 [Compound 290],
+++ (+++ is >60%),< 1000 nM,,,Cc1cccc(C)c1-c1cc2cc(n1)NS(=O)(=O)c1cccc(c1)C(=O)N[C@H](CC(C)C)CO2 [Compound 296],
+++ (+++ is >60%),1000 to 3000 nM,,,COc1ccc(C)c(-c2cc3nc(n2)NS(=O)(=O)c2cccc(c2)C(=O)N[C@H](CC(C)C)CO3)c1 [Compound 302],
+++ (+++ is >60%),1000 to 3000 nM,,,COc1cccc(C)c1-c1cc2nc(n1)NS(=O)(=O)c1cccc(c1)C(=O)N[C@H](CC(C)(C)C)CO2 [Compound 304],
,,++ (++ is 30-60%),< 1000 nM,Cc1cccc(C)c1-c1cc2nc(n1)NS(=O)(=O)c1cccc(c1)C(=O)NC[C@H](Cc1ccccc1)O2 [Compound 346],
,,+++ (+++ is >600%),3000 to 30000 nM,Cc1cccc(C)c1-c1cc2nc(n1)NS(=O)(=O)c1cccc(c1)C(=O)NC(C)(C)CO2 [Compound 348],
,,+++ (+++ is >600%),< 1000 nM,Cc1cccc(C)c1-c1cc2nc(n1)NS(=O)(=O)c1cccc(c1)C(=O)N[C@H](c1ccccc1)CO2 [Compound 352],
,,++ (++ is 30-60%),3000 to 30000 nM,CC[C@@H]1COc2cc(-c3c(C)cccc3C)nc(n2)NS(=O)(=O)c2cccc(c2)C(=O)N1 [Compound 353],
,,++ (++ is 30-60%),1000 to 3000 nM,Cc1cccc(C)c1-c1cc2nc(n1)NS(=O)(=O)c1cccc(c1)C(=O)NC(C(C)C)CO2 (centres unmarked) [Compound 355],
+++ (+++ is >60%),< 1000 nM,,,Cc1cccc(C)c1-c1cc2nc(n1)NS(=O)(=O)c1cccc(c1)C(=O)NC1(CCCC1)CO2 [Compound 360],

# The remaining lines, values behind:
SMILES,Ent. A Max Activity (Table 8),EC50 (Table 8),Ent. A Max Activity (Enteroid Assay A),EC50 (Enteroid Assay A),further results
Cc1cccc(C)c1-c1cc2nc(n1)NS(=O)(=O)c1cccc(c1)C(=O)NCC(c1ccc(CC(C)(C)C)cc1)O2 (centres unmarked) [Compound 264],,,,,Ent. A Max Activity (Table 9): + (+ is <30%); EC50 (Table 9): < 1000 nM
Cc1cccc(C)c1-c1cc2nc(n1)NS(=O)(=O)c1cccc(c1)C(=O)NCC(c1ccc(C3(C)CC3)cc1)O2 (centres unmarked) [Compound 265],,,,,Ent. A Max Activity (Table 9): ++ (++ is 30-60%); EC50 (Table 9): < 1000 nM
CCC(CC)(CC)c1ccc(C2CNC(=O)c3cccc(c3)S(=O)(=O)Nc3nc(cc(-c4c(C)cccc4C)n3)O2)cc1 (centres unmarked) [Compound 266],,,,,Ent. A Max Activity (Table 9): ++ (++ is 30-60%); EC50 (Table 9): < 1000 nM
Cc1cccc(C)c1-c1cc2nc(n1)NS(=O)(=O)c1ccccc1C(=O)N[C@H](C)[C@@H](c1ccc(C(C)(C)C)cc1)O2 [Compound 282],,,,,Ent. A Max Activity (Table 9): + (+ is <30%)
Cc1cccc(C)c1-c1cc2nc(n1)NS(=O)(=O)c1cccc(c1)C(=O)NCC(C1CCC(C)(C)CC1)O2 (centres unmarked) [Compound 283],,,,,Ent. A Max Activity (Table 9): +++ (+++ is >60%); EC50 (Table 9): < 1000 nM
Cc1cccc(C)c1-c1cc2nc(n1)NS(=O)(=O)c1cccc(c1)CN[C@H](CC1CCCCC1)CO2 [Compound 286],+ (+ is <30%),3000 to 30000 nM,,,
Cc1cccc(C)c1-c1cc2nc(n1)NS(=O)(=O)c1cccc(c1)C(=O)NCC(C#CC(C)(C)C)O2 (centres unmarked) [Compound 297],,,,,Ent. A Max Activity (Table 9): ++ (++ is 30-60%); EC50 (Table 9): < 1000 nM
CC(C)C[C@@H]1COc2cc(C3C(C)CCCC3C)nc(n2)NS(=O)(=O)c2cccc(c2)C(=O)N1 (some centres unmarked) [Compound 300],,< 1000 nM,,,
CC(C)C[C@@H]1COc2cc(C3C(C)CCCC3C)nc(n2)NS(=O)(=O)c2cccc(c2)C(=O)N1 (some centres unmarked) [Compound 301],,3000 to 30000 nM,,,
COc1cccc(C)c1-c1cc2nc(n1)NS(=O)(=O)c1cccc(c1)C(=O)N[C@H](CC1CCCCC1)CO2 [Compound 303],+ (+ is <30%),< 1000 nM,,,
CC(C)C[C@@H]1COc2cc(-n3ccc(OCCC4(C(F)(F)F)CC4)n3)nc(n2)NS(=O)(=O)c2cccc(c2)C(=O)N1 [Compound 306],+ (+ is <30%),,,,
CC(C)C[C@@H]1COc2cc(-n3nccc3C(C)C)nc(n2)NS(=O)(=O)c2cccc(c2)C(=O)N1 [Compound 307],+ (+ is <30%),,,,
CC(C)C[C@@H]1COc2cc(-n3ccc(C(F)(F)F)n3)nc(n2)NS(=O)(=O)c2cccc(c2)C(=O)N1 [Compound 308],+ (+ is <30%),,,,
CC(C)C[C@@H]1COc2cc(N3C(C)CCC3C)nc(n2)NS(=O)(=O)c2cccc(c2)C(=O)N1 (some centres unmarked) [Compound 309],+ (+ is <30%),,,,
CCC1CCC(c2cc3nc(n2)NS(=O)(=O)c2cccc(c2)C(=O)N[C@H](CC(C)C)CO3)CC1 (some centres unmarked) [Compound 310],,< 1000 nM,,,
CC(C)C[C@@H]1COc2cc(C3CC4CCC3(C)C4(C)C)nc(n2)NS(=O)(=O)c2cccc(c2)C(=O)N1 (some centres unmarked) [Compound 311],,< 1000 nM,,,
CC(C)C[C@@H]1COc2cc(C3CCCCO3)nc(n2)NS(=O)(=O)c2cccc(c2)C(=O)N1 (some centres unmarked) [Compound 313],,3000 to 30000 nM,,,

SMILES,Ent. A Max Activity (Table 8),EC50 (Table 8),Ent. A Max Activity (Enteroid Assay A),EC50 (Enteroid Assay A),further results
CC(C)C[C@@H]1COc2cc(C3CCOCC3)nc(n2)NS(=O)(=O)c2cccc(c2)C(=O)N1 [Compound 314],+ (+ is <30%),3000 to 30000 nM,,,
CC(C)C[C@@H]1COc2cc(C3=CC(C)CC3(C)C)nc(n2)NS(=O)(=O)c2cccc(c2)C(=O)N1 (some centres unmarked) [Compound 320],,,++ (++ is 30-60%),< 1000 nM,
CC(C)C[C@@H]1COc2cc(C3=CCCC3)nc(n2)NS(=O)(=O)c2cccc(c2)C(=O)N1 [Compound 321],,,,3000 to 30000 nM,
CCC1CC=C(c2cc3nc(n2)NS(=O)(=O)c2cccc(c2)C(=O)N[C@H](CC(C)C)CO3)CC1 (some centres unmarked) [Compound 322],,,++ (++ is 30-60%),1000 to 3000 nM,
CC(C)C[C@@H]1COc2cc(C3=CCC(C)(C)CC3)nc(n2)NS(=O)(=O)c2cccc(c2)C(=O)N1 [Compound 323],,,++ (++ is 30-60%),1000 to 3000 nM,
CC(C)C[C@@H]1COc2cc(C3=CCC(C)CC3)nc(n2)NS(=O)(=O)c2cccc(c2)C(=O)N1 (some centres unmarked) [Compound 324],,,++ (++ is 30-60%),1000 to 3000 nM,
CC(C)C[C@@H]1COc2cc(C3=CCCCC3)nc(n2)NS(=O)(=O)c2cccc(c2)C(=O)N1 [Compound 327],,,++ (++ is 30-60%),1000 to 3000 nM,
CCOc1ccccc1-c1cc2nc(n1)NS(=O)(=O)c1cccc(c1)C(=O)N[C@H](CC(C)C)CO2 [Compound 328],,,++ (++ is 30-60%),1000 to 3000 nM,
COc1ccccc1-c1cc2nc(n1)NS(=O)(=O)c1cccc(c1)C(=O)N[C@H](CC(C)C)CO2 [Compound 330],,,++ (++ is 30-60%),,
CC(C)COc1cccc(-c2cc3nc(n2)NS(=O)(=O)c2cccc(c2)C(=O)N[C@H](CC(C)C)CO3)c1 [Compound 331],,,,1000 to 3000 nM,
CC(C)C[C@@H]1COc2cc(-c3ccccc3CC(C)(C)C)nc(n2)NS(=O)(=O)c2cccc(c2)C(=O)N1 [Compound 332],,,++ (++ is 30-60%),< 1000 nM,
CC(C)C[C@@H]1COc2cc(-c3cc(C(F)(F)F)nn3C)nc(n2)NS(=O)(=O)c2cccc(c2)C(=O)N1 [Compound 338],,,,3000 to 30000 nM,
CC(C)C[C@@H]1COc2cc(-c3ccccc3)nc(n2)NS(=O)(=O)c2cccc(c2)C(=O)N1 [Compound 340],,,++ (++ is 30-60%),3000 to 30000 nM,
CC(C)C[C@@H]1COc2cc(-c3ccnn3C(C)C)nc(n2)NS(=O)(=O)c2cccc(c2)C(=O)N1 [Compound 341],,,++ (++ is 30-60%),,
CC(C)C[C@@H]1COc2cc(-c3ccccc3OCC3CC3)nc(n2)NS(=O)(=O)c2cccc(c2)C(=O)N1 [Compound 344],,,++ (++ is 30-60%),1000 to 3000 nM,
CC(C)C[C@@H]1COc2cc(-c3ccccc3C(C)C)nc(n2)NS(=O)(=O)c2cccc(c2)C(=O)N1 [Compound 345],,,+++ (+++ is >600%),< 1000 nM,
Cc1cccc(C)c1-c1cc2nc(n1)NS(=O)(=O)c1cc(n(C)n1)C(=O)N[C@@H](CC1CCCCC1)CO2 [Compound 359],+ (+ is <30%),,,,

# From patent US20230382924A1, “MODULATORS OF CYSTIC FIBROSIS TRANSMEMBRANE CONDUCTANCE REGULATOR” (VERTEX PHARMACEUTICALS INCORPORATED, priority 2020, published 2023)
